In general, viability refers to a read-out of living cells in per cent, often relative to untreated cells. Low readings indicate a greater loss of cells, high ones better survival. Usually Cmax stands for the highest concentration seen after dosing.

Data set [1] in a line: Cyto-toxicity (MTT assay). The class given is cell-based. For orientation: Tetrazolium assays rely on reduction of a dye to a coloured formazan, in cell work by metabolically active cells.
Data set [2] in a line: Single dose oral pharmacokinetic study. The conditions noted are these: mouse, Mice oral PK @30 mg/kg, plasma, vehicle 10% Solutol+20% PEG; for AUC(0-t): read-out: AUC0-t; for Cmax: read-out: Cmax. The class given is in vivo. In short, it runs like this: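 Rats or mice dosed orally at 30 mg/kg in 10% Solutol+20% PEG. Acetonitrile precipitation, then LC-MS/MS quantification for PK parameters.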

`CC(C)C1=C2[C@H]3CC[C@@H]4[C@@]5(C)CC[C@H](OC(=O)[C@H]6C[C@@H](C(=O)O)C6(C)C)C(C)(C)[C@@H]5CC[C@@]4(C)[C@]3(C)CC[C@@]2(NC(=O)C2(NC(=O)c3ccc(Cl)cc3)CCCCC2)CC1=O` [Example 48, (1R,3S)-3-((((3aR,5aR,5bR,7aR,9S,11aR,11bR,13aS)-3a-(1-(4-chlorobenzamido)cyclohexane-1-carboxamido)-1-isopropyl-5a,5b,8,8,11a-pentamethyl-2-oxo-3,3a,4,5,5a,5b,6,7,7a,8,9,10,11,11a,11b,12,13,13a-octadecahydro-2H-cyclopenta[a]chrysen-9-yl)oxy)carbonyl)-2,2-dimethylcyclobutane-1-carboxylic acid]: in data set [1], the viability at 4 days, 0.01 µM was 44%; the viability at 4 days, 0.1 µM turned out to be 12%; the viability at 4 days, 1 µM was determined as 4%. Besides, in data set [2], the AUC(0-t) was determined as 477 µg·h/mL and the Cmax is 20300 ng/mL.

With `Cc1ccc(C(=O)NC2(C(=O)N[C@@]34CC[C@]5(C)[C@H](CC[C@@H]6[C@@]7(C)CC[C@H](OC(=O)[C@H]8C[C@@H](C(=O)O)C8(C)C)C(C)(C)[C@@H]7CC[C@]65C)C3=C(C(C)C)C(=O)C4)CCCCC2)cc1` [Example 50, (1R,3S)-3-((((3aR,5aR,5bR,7aR,9S,11aR,11bR,13aS)-1-isopropyl-5a,5b,8,8,11a-pentamethyl-3a-(1-(4-methylbenzamido)cyclohexane-1-carboxamido)-2-oxo-3,3a,4,5,5a,5b,6,7,7a,8,9,10,11,11a,11b,12,13,13a-octadecahydro-2H-cyclopenta[a]chrysen 9-yl)oxy)carbonyl)-2,2-dimethylcyclobutane-1-carboxylic acid], in data set [1], the viability at 4 days, 0.01 µM amounted to 21%; the viability at 4 days, 0.1 µM was found to be 0%; the viability at 4 days, 1 µM came to 0%. Further, in data set [2], the AUC(0-t) came to 454 µg·h/mL and the Cmax was determined as 23300 ng/mL.

Turning to `CC(C)C1=C2[C@H]3CC[C@@H]4[C@@]5(C)CC[C@H](OC(=O)[C@H]6C[C@@H](C(=O)O)C6(C)C)C(C)(C)[C@@H]5CC[C@@]4(C)[C@]3(C)CC[C@@]2(NC(=O)C(C)(C)NC(=O)c2ccc(S(C)(=O)=O)cc2)CC1=O` [Example 51, (1R,3S)-3-((((3aR,5aR,5bR,7aR,9S,11aR,11bR,13aS)-1-isopropyl-5a,5b,8,8,11a-pentamethyl-3a-(2-methyl-2-(4-(methylsulfonyl)benzamido)propanamido)-2-oxo-3,3a,4,5,5a,5b,6,7,7a,8,9,10,11,11a,11b,12,13,13a-octadecahydro-2H-cyclopenta[a]chrysen-9-yl)oxy)carbonyl)-2,2-dimethylcyclobutane-1-carboxylic acid], in data set [1], the viability at 4 days, 0.001 µM worked out at 86%; the viability at 4 days, 0.003 µM is 85%; the viability at 4 days, 0.01 µM is 37%. In data set [2], the AUC(0-t) was determined as 277 µg·h/mL and the Cmax worked out at 32300 ng/mL.

In data set [1], `CC(C)C1=C2[C@H]3CC[C@@H]4[C@@]5(C)CC[C@H](OC(=O)[C@H]6C[C@@H](C(=O)O)C6(C)C)C(C)(C)[C@@H]5CC[C@@]4(C)[C@]3(C)CC[C@@]2(NC(=O)C(C)(C)NC(=O)CN(C)C)CC1=O` [Example 59, (1R,3S)-3-((((3aR,5aR,5bR,7aR,9S,11aR,11bR,13aS)-3a-(2-(2-(dimethylamino)acetamido)-2-methylpropanamido)-1-isopropyl-5a,5b,8,8,11a-pentamethyl-2-oxo-3,3a,4,5,5a,5b,6,7,7a,8,9,10,11,11a,11b,12,13,13a-octadecahydro-2H-cyclopenta[a]chrysen-9-yl)oxy)carbonyl)-2,2-dimethylcyclobutane-1-carboxylic acid] registered a viability at 4 days, 0.01 µM of 94%; a viability at 4 days, 0.1 µM of 15%; a viability at 4 days, 1 µM of 8%. In data set [2], the AUC(0-t) stood at 186 µg·h/mL and the Cmax came out at 13900 ng/mL.

In data set [1], `Cc1cccc(C(=O)NC(C)(C)C(=O)N[C@@]23CC[C@]4(C)[C@H](CC[C@@H]5[C@@]6(C)CC[C@H](OC(=O)[C@H]7C[C@@H](C(=O)O)C7(C)C)C(C)(C)[C@@H]6CC[C@]54C)C2=C(C(C)C)C(=O)C3)n1` [Example 60, (1R,3S)-3-((((3aR,5aR,5bR,7aR,9S,11aR,11bR,13aS)-1-isopropyl-5a,5b,8,8,11a-pentamethyl-3a-(2-methyl-2-(6-methylpicolinamido)propanamido)-2-oxo-3,3a,4,5,5a,5b,6,7,7a,8,9,10,11,11a,11b,12,13,13a-octadecahydro-2H-cyclopenta[a]chrysen-9-yl)oxy)carbonyl)-2,2-dimethylcyclobutane-1-carboxylic acid] yielded a viability at 4 days, 0.01 µM of 77%; a viability at 4 days, 0.1 µM of 27%; a viability at 4 days, 1 µM of 2%. In data set [2], the AUC(0-t) was determined as 217 µg·h/mL and the Cmax was 20200 ng/mL.

In data set [1], `Cc1ccc(C(=O)NC(C)(C)C(=O)N[C@@]23CC[C@]4(C)[C@H](CC[C@@H]5[C@@]6(C)CC[C@H](OC(=O)[C@H]7C[C@@H](C(=O)O)C7(C)C)C(C)(C)[C@@H]6CC[C@]54C)C2=C(C(C)C)C(=O)C3)cn1` [Example 61, (1R,3S)-3-((((3aR,5aR,5bR,7aR,9S,11aR,11bR,13aS)-1-isopropyl-5a,5b,8,8,11a-pentamethyl-3a-(2-methyl-2-(6-methylnicotinamido)propanamido)-2-oxo-3,3a,4,5,5a,5b,6,7,7a,8,9,10,11,11a,11b,12,13,13a-octadecahydro-2H-cyclopenta[a]chrysen-9-yl)oxy)carbonyl)-2,2-dimethylcyclobutane-1-carboxylic acid] gave a viability at 4 days, 0.01 µM of 88%; a viability at 4 days, 0.1 µM of 42%; a viability at 4 days, 1 µM of 2%. Also, in data set [2], the AUC(0-t) was 615 µg·h/mL and the Cmax amounted to 45700 ng/mL.

In data set [1], `CCOC(=O)NC(C)(C)C(=O)N[C@@]12CC[C@]3(C)[C@H](CC[C@@H]4[C@@]5(C)CC[C@H](OC(=O)[C@H]6C[C@@H](C(=O)O)C6(C)C)C(C)(C)[C@@H]5CC[C@]43C)C1=C(C(C)C)C(=O)C2` [Example 64, (1R,3S)-3-((((3aR,5aR,5bR,7aR,9S,11aR,11bR,13aS)-3a-(2-((ethoxycarbonyl)amino)-2-methylpropanamido)-1-isopropyl-5a,5b. 8,8,11a-pentamethyl-2-oxo-3,3a,4,5,5a,5b,6,7,7a,8,9,10,11,11a,11b,12,13,13a-octadecahydro-2H-cyclopenta[a]chrysen-9-yl)oxy)carbonyl)-2,2-dimethylcyclobutane-1-carboxylic acid] showed a viability at 4 days, 0.01 µM of 26%; a viability at 4 days, 0.1 µM of 2%; a viability at 4 days, 1 µM of 1%. Also, in data set [2], the AUC(0-t) amounted to 336 µg·h/mL and the Cmax came to 27400 ng/mL.

For `CC(C)C1=C2[C@H]3CC[C@@H]4[C@@]5(C)CC[C@H](OC(=O)[C@H]6C[C@@H](C(=O)O)C6(C)C)C(C)(C)[C@@H]5CC[C@@]4(C)[C@]3(C)CC[C@@]2(NC(=O)C(C)(C)NCc2ccccn2)CC1=O` [Example 67, (1R,3S)-3-((((3aR,5aR,5bR,7aR,9S,11aR,11bR,13aS)-1-isopropyl-5a,5b,8,8,11a-pentamethyl-3a-(2-methyl-2-((pyridin-2-ylmethyl)amino)propan amido)-2-oxo-3,3a,4,5,5a,5b,6,7,7a,8,9,10,11,11a,11b,12,13,13a-octadecahydro-2H-cyclopenta[a]chrysen-9-yl)oxy)carbonyl)-2,2-dimethylcyclobutane-1-carboxylic acid], in data set [1], the viability at 4 days, 0.01 µM was determined as 59%; the viability at 4 days, 0.1 µM was found to be 21%; the viability at 4 days, 1 µM amounted to 3%. Further, in data set [2], the AUC(0-t) was 86.6 µg·h/mL and the Cmax turned out to be 24300 ng/mL.

In data set [1], `Cc1ccc(NC(=O)NC(C)(C)C(=O)N[C@@]23CC[C@]4(C)[C@H](CC[C@@H]5[C@@]6(C)CC[C@H](OC(=O)[C@H]7C[C@@H](C(=O)O)C7(C)C)C(C)(C)[C@@H]6CC[C@]54C)C2=C(C(C)C)C(=O)C3)cn1` [Example 71, (1R,3S)-3-((((3aR,5aR,5bR,7aR,9S,11aR,11bR,13aS)-1-isopropyl-5a,5b,8,811a-pentamethyl-3a-(2-methyl-2-(3-(6-methylpyridin-3-yl)ureido)propanamido)-2-oxo-3,3a,4,5,5a,5b,6,7,7a,8,9,10,11,11a,11b,12,13,13a-octadecahydro-2H-cyclopenta[a]chrysen-9-yl)oxy)carbonyl)-2,2-dimethylcyclobutane-1-carboxylic acid] returned a viability at 4 days, 0.01 µM of 41%; a viability at 4 days, 0.1 µM of 5%; a viability at 4 days, 1 µM of 3%. In addition, in data set [2], the AUC(0-t) came to 130 µg·h/mL and the Cmax is 19300 ng/mL.

With `Cc1cccc(NC(=O)NC(C)(C)C(=O)N[C@@]23CC[C@]4(C)[C@H](CC[C@@H]5[C@@]6(C)CC[C@H](OC(=O)[C@H]7C[C@@H](C(=O)O)C7(C)C)C(C)(C)[C@@H]6CC[C@]54C)C2=C(C(C)C)C(=O)C3)n1` [Example 72, (1R,3S)-3-((((3aR,5aR,5bR,7aR,9S,11aR,11bR,13aS)-1-isopropyl-5a,5b,8,8,11a-pentamethyl-3a-(2-methyl-2-(3-(6-methylpyridin-2-yl)ureido)propanamido)-2-oxo-3,3a,4,5,5a,5b,6,7,7a,8,9,10,11,11a,11b,12,13,13a-octadecahydro-2H-cyclopenta[a]chrysen-9-yl)oxy)carbonyl)-2,2-dimethylcyclobutane-1-carboxylic acid], in data set [1], the viability at 4 days, 0.001 µM came to 98%; the viability at 4 days, 0.003 µM is 84%; the viability at 4 days, 0.01 µM stood at 27%. In addition, in data set [2], the AUC(0-t) is 192 µg·h/mL and the highest concentration (Cmax) stood at 15300 ng/mL.

Source of the values: patent publication US20170008921A1, “C-3 NOVEL TRITERPENONE WITH C-28 REVERSE AMIDE DERIVATIVES AS HIV INHIBITORS” (HETERO RESEARCH FOUNDATION, priority 2015, published 2017).
